In PubChem BioAssay (NCI):
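Cultured in 96-well plates, cells were exposed to test compound for 48 hours across five concentrations. GI50 is the concentration that inhibits growth by half. TGI marks complete inhibition of growth.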

Experiments:
Experiment in all cases: inhibition of tumour cell growth, NCI panel, 48 h
COLO 205 colon = system: COLO 205 colon
RXF 393 renal = system: RXF 393 renal
HCC-2998 colon = system: HCC-2998 colon
MOLT-4 leukemia = system: MOLT-4 leukemia
MCF7 breast = system: MCF7 breast
786-0 renal = system: 786-0 renal
A549 NSCLC = system: A549 NSCLC
NCI-H522 lung = system: NCI-H522 lung
SNB-75 CNS = system: SNB-75 CNS
IGROV1 ovarian = system: IGROV1 ovarian
HT29 colon = system: HT29 colon
ACHN renal = system: ACHN renal
SNB-19 CNS = system: SNB-19 CNS
OVCAR-8 ovarian = system: OVCAR-8 ovarian
LOX IMVI melanoma = system: LOX IMVI melanoma
SF-539 CNS = system: SF-539 CNS
MDA-MB-231 breast = system: MDA-MB-231 breast
RPMI-8226 leukemia = system: RPMI-8226 leukemia
NCI/ADR-RES ovarian = system: NCI/ADR-RES ovarian
OVCAR-5 ovarian = system: OVCAR-5 ovarian
SF-268 CNS = system: SF-268 CNS
SK-MEL-28 melanoma = system: SK-MEL-28 melanoma
SK-OV-3 ovarian = system: SK-OV-3 ovarian
EKVX NSCLC = system: EKVX NSCLC
CCRF-CEM leukemia = system: CCRF-CEM leukemia
NCI-H460 lung = system: NCI-H460 lung
SF-295 CNS = system: SF-295 CNS
CAKI-1 renal = system: CAKI-1 renal
UACC-62 melanoma = system: UACC-62 melanoma
HCT-116 colon = system: HCT-116 colon
PC-3 prostate = system: PC-3 prostate
DU-145 prostate = system: DU-145 prostate
TK-10 renal = system: TK-10 renal
BT-549 breast = system: BT-549 breast
SW-620 colon = system: SW-620 colon
MDA-MB-435 = system: MDA-MB-435
UACC-257 melanoma = system: UACC-257 melanoma
T-47D breast = system: T-47D breast
OVCAR-3 ovarian = system: OVCAR-3 ovarian
SK-MEL-5 melanoma = system: SK-MEL-5 melanoma
M14 melanoma = system: M14 melanoma
HS 578T breast = system: HS 578T breast
SK-MEL-2 melanoma = system: SK-MEL-2 melanoma
SN12C renal = system: SN12C renal
U251 CNS = system: U251 CNS
HCT-15 colon = system: HCT-15 colon
KM12 colon = system: KM12 colon
NCI-H23 lung = system: NCI-H23 lung
OVCAR-4 ovarian = system: OVCAR-4 ovarian
UO-31 renal = system: UO-31 renal
HOP-92 NSCLC = system: HOP-92 NSCLC
HOP-62 NSCLC = system: HOP-62 NSCLC

## O=C(Cc1csc2nc(-c3ccc(Br)cc3)cn12)N/N=C/c1ccccc1
COLO 205 colon
  GI50: 66.1 µM
  TGI: > 100 µM
RXF 393 renal
  GI50: 14.5 µM
  TGI: 38.8 µM
HCC-2998 colon
  GI50: 13.2 µM
  TGI: 49.3 µM
MOLT-4 leukemia
  GI50: 6.69 µM
  TGI: 37 µM
MCF7 breast
  GI50: 75.9 µM
  TGI: > 100 µM
786-0 renal
  GI50: 27.7 µM
  TGI: > 100 µM
A549 NSCLC
  GI50: 13.5 µM
  TGI: 40.9 µM
NCI-H522 lung
  GI50: 14.2 µM
  TGI: 60.8 µM
SNB-75 CNS
  GI50: 31.8 µM
  TGI: 89.2 µM
IGROV1 ovarian
  GI50: 11.2 µM
  TGI: 32.7 µM
HT29 colon
  GI50: 44 µM
  TGI: > 100 µM
ACHN renal
  GI50: 10.8 µM
  TGI: 25.6 µM
SNB-19 CNS
  GI50: 44.1 µM
  TGI: > 100 µM
OVCAR-8 ovarian
  GI50: 2.36 µM
  TGI: 20.5 µM
LOX IMVI melanoma
  GI50: 12.2 µM
  TGI: 90.8 µM
SF-539 CNS
  GI50: 16.2 µM
  TGI: 39.4 µM
MDA-MB-231 breast
  GI50: 13 µM
  TGI: 58.2 µM
RPMI-8226 leukemia
  GI50: 7.38 µM
  TGI: > 100 µM
NCI/ADR-RES ovarian
  GI50: 13.6 µM
  TGI: 67.6 µM
OVCAR-5 ovarian
  GI50: 30.7 µM
  TGI: > 100 µM
SF-268 CNS
  GI50: > 100 µM
  TGI: > 100 µM
SK-MEL-28 melanoma
  GI50: > 100 µM
  TGI: > 100 µM
SK-OV-3 ovarian
  GI50: 65.7 µM
  TGI: > 100 µM
EKVX NSCLC
  GI50: 6.95 µM
  TGI: 52.5 µM
CCRF-CEM leukemia
  GI50: 17.3 µM
  TGI: > 100 µM
NCI-H460 lung
  GI50: 53 µM
  TGI: > 100 µM
SF-295 CNS
  GI50: 12.1 µM
  TGI: 37.4 µM
CAKI-1 renal
  GI50: 30.3 µM
  TGI: 82.2 µM
UACC-62 melanoma
  GI50: 11.6 µM
  TGI: 28.2 µM
HCT-116 colon
  GI50: 9.32 µM
  TGI: 21.2 µM
PC-3 prostate
  GI50: 20.2 µM
  TGI: > 100 µM
DU-145 prostate
  GI50: 14.6 µM
  TGI: 45.1 µM
TK-10 renal
  GI50: 14.1 µM
  TGI: 42.1 µM
BT-549 breast
  GI50: 13 µM
  TGI: 49.1 µM
SW-620 colon
  GI50: 18.8 µM
  TGI: 62.8 µM
MDA-MB-435
  GI50: 12.1 µM
  TGI: 51.8 µM
UACC-257 melanoma
  GI50: 6.21 µM
  TGI: 32 µM
T-47D breast
  GI50: 36.9 µM
  TGI: > 100 µM
OVCAR-3 ovarian
  GI50: 24.1 µM
  TGI: 46.3 µM
SK-MEL-5 melanoma
  GI50: 5.66 µM
  TGI: 26.9 µM
M14 melanoma
  GI50: 20.9 µM
  TGI: > 100 µM
HS 578T breast
  GI50: 16.4 µM
  TGI: 51.1 µM
SK-MEL-2 melanoma
  GI50: 33 µM
  TGI: > 100 µM
SN12C renal
  GI50: 13.1 µM
  TGI: 39.9 µM
U251 CNS
  GI50: 12.7 µM
  TGI: 32.1 µM
HCT-15 colon
  GI50: 16.3 µM
  TGI: > 100 µM
KM12 colon
  GI50: 26.1 µM
  TGI: > 100 µM
NCI-H23 lung
  GI50: 12.6 µM
  TGI: 61.4 µM
OVCAR-4 ovarian
  GI50: 47.1 µM
  TGI: > 100 µM
UO-31 renal
  GI50: 58.2 µM
  TGI: > 100 µM
HOP-92 NSCLC
  GI50: 12.2 µM
  TGI: 37 µM
HOP-62 NSCLC
  GI50: 15.3 µM
  TGI: 39.8 µM
